Measurements taken from article PMC6099238 (Journal of Clinical Pharmacology, 2018).
Read-outs that look alike come from different tables or passages of the source. Blank lines part the entries; values can stand above or below the molecule they belong to.

How the values were obtained:
[1] = test system: serum uric acid; assay: Serum uric acid lowering, phase 1b open-label multiple-dose study; assay type: in vivo, patients with gout; settings: for serum uric acid: Change From Baseline, Emax (maximum percentage change from baseline in serum uric acid lowering) / serum uric acid: Change From Baseline, Predose / Subjects With Predose Serum Uric Acid <4 mg/dL / Subjects With Predose Serum Uric Acid <5 mg/dL / Subjects With Predose Serum Uric Acid <6 mg/dL: group 2; for serum uric acid: Change From Baseline, Emax (maximum percentage change from baseline in serum uric acid lowering) / serum uric acid: Change From Baseline, Predose: ALLO 300 mg/day alone (day 7), ALLO 300 mg/LESU 600 mg (day 14), LESU 600 mg/day alone (day 21), % (SE); for Subjects With Predose Serum Uric Acid <4 mg/dL / Subjects With Predose Serum Uric Acid <5 mg/dL / Subjects With Predose Serum Uric Acid <6 mg/dL: ALLO 300 mg/day alone (day 7, n = 10), ALLO 300 mg/LESU 600 mg (day 14, n = 10), LESU 600 mg/day alone (day 21, n = 9)
[2] = test system: urinary urate excretion; assay: Urinary excretion of urate, fractional excretion of urate and xanthine; assay type: in vivo, patients with gout
[3] = assay type: in vivo, patients with gout
[4] = test system: URAT1; settings: cited from earlier work
[5] = ALLO 300 mg/LESU 400 mg versus ALLO 300 mg alone
[6] = ALLO 300 mg/LESU 600 mg versus ALLO 300 mg alone

Structure (SMILES): O=C(O)CSc1nnc(Br)n1-c1ccc(C2CC2)c2ccccc12 [lesinurad]
- serum uric acid: Change From Baseline, Emax (maximum percentage change from baseline in serum uric acid lowering) [1]: −46.7 (5.5) %
- serum uric acid: Change From Baseline, Predose [1]: −37.2 (1.6) %
- Subjects With Predose Serum Uric Acid <4 mg/dL [1]: 0 n (%)
- Subjects With Predose Serum Uric Acid <5 mg/dL [1]: 3 (33) n (%)
- Subjects With Predose Serum Uric Acid <6 mg/dL [1]: 6 (67) n (%)
- serum uric acid reduced by ([1]; lesinurad 400 mg/day, added to allopurinol 300 mg/day or alone (abstract)): 44%
- serum uric acid reduced by ([1]; lesinurad 600 mg/day, added to allopurinol 300 mg/day or alone (abstract)): 47%
- effect on xanthine excretion (urine) ([2]; single agent): no significant effect

Structure (SMILES): Oc1ncnc2[nH]ncc12 [allopurinol]
- Emax (serum uric acid lowering) ([1]; allopurinol 300 mg (discussion)): −37%
- serum uric acid reduced by ([1]; allopurinol 300 mg/day alone (abstract)): 37%
- serum uric acid: Change From Baseline, Emax (maximum percentage change from baseline in serum uric acid lowering) [1]: −35.1 (2.3) %
- serum uric acid: Change From Baseline, Predose [1]: −28.7 (2.4) %
- Subjects With Predose Serum Uric Acid <4 mg/dL [1]: 0 n (%)
- Subjects With Predose Serum Uric Acid <5 mg/dL [1]: 1 (10) n (%)
- Subjects With Predose Serum Uric Acid <6 mg/dL [1]: 3 (30) n (%)
- decrease of 24‐hour urate excretion compared with baseline ([2]; allopurinol 300 mg alone): ~35%
- Mean 24‐hour urate excretion compared with baseline ([2]; allopurinol 300 mg/day alone): –35%
- effect on fractional excretion of urate ([2]; single agent): no effect
- effect on xanthine excretion (urine) ([2]; single agent): increased

- Oxypurinol AUC0‐24 Geometric Mean Ratio (90%CI) (Combination/Alone) [3, 5]: 74.2 (65.1‐84.7)
- Oxypurinol Cmax Geometric Mean Ratio (90%CI) (Combination/Alone) [3, 5]: 79.4 (69.8‐90.3)
- Oxypurinol AUC0‐24 Geometric Mean Ratio (90%CI) (Combination/Alone) [3, 6]: 64.7 (61.3‐68.3)
- Oxypurinol Cmax Geometric Mean Ratio (90%CI) (Combination/Alone) [3, 6]: 71.7 (67.8‐75.7)
- Decrease of oxypurinol plasma concentrations ([3]; during co-administration of lesinurad 400 mg with allopurinol 300 mg): approximately 26%
- Decrease of oxypurinol plasma concentrations ([3]; during co-administration of lesinurad 600 mg with allopurinol 300 mg): ~35%
- Cmax ([3]; human, plasma, oral, Oxypurinol Cmax, ALLO 300 mg/LESU 600 mg co-administration, geometric mean, n = 10): 9660 ng/mL
- Oxypurinol Tmax ([3]; plasma, ALLO 300 mg alone, group 1 (before LESU 400 mg), median (range), n = 10): 4.00 (3.00‐6.00) h
- Oxypurinol Cmax ([3]; plasma, ALLO 300 mg/LESU 400 mg co-administration, geometric mean, n = 10): 9.82 (8.66‐11.1) μg/mL
Structure (SMILES): O=c1[nH]c(=O)c2c[nH]nc2[nH]1 [oxypurinol]
- transporter substrate [4]: substrate of URAT1
